Measurements from patent publication US9775878B2, “Methods for treating bacterial infections using oritavancin and polymyxins” (The Medicines Company, priority 2013, dated 2017).
Where two headings read alike, the source gives them in different places.

Columns and labels:
[1] = system: Acinetobacter baumannii strains; assay: Broth macrodilution MICs under conditions used for synergy time-kill assays; type: cell-based; conditions: for MIC: Acinetobacter baumannii, read-out: Broth macrodilution MICs
Procedure: (§1) Broth microdilution MIC testing (CLSI M07-A9) was performed on the Acinetobacter baumannii (AB) reference strain ATCC 19606 (obtained from ATCC) and 10 AB strains, including 8 MDRAB (resistant to ≧3 of the following: beta-lactams, gentamicin, fluoroquinolones and tetracycline; obtained from Eurofins Medinet Chantilly, Va.). The requirement of 0.002% polysorbate 80 (P-80) for testing oritavancin also necessitated the testing of COL in the presence of P80. Checkerboard assays were used to determine activity of antimicrobial combinations; fractional inhibitory concentration indices (FICI) were used to define synergy, indifference or antagonism. Broth macrodilution MICs were determined following conditions used for synergy time-kill assays. Synergy time-kill studies were performed following CLSI guidelines.
(§2) Minimum inhibitory concentrations (MICs). Broth microdilution MICs were determined according to CLSI (CLSI document M7-A9, 2013) guidelines with the exception that COL MICs were also determined in the presence of 0.002% polysorbate 80 (P80) since P80 was to be present in the combination tests because of its requirement for testing oritavancin. Broth macrodilution MICs were determined following conditions used for synergy time-kill assays.

[2] = system: Acinetobacter baumannii strains; assay: Synergy time-kill assay; type: cell-based; conditions: concentration of the agent within the ORI+COL combination, ≧2 log CFU/mL decrease vs most active constituent at 24 h, 0.002% P80
Procedure: as §1
Time-kill assays followed CLSI guidelines (NCCLS, CLSI document M26-A2, 1999) with the exception that 96 deep-well plates were used. Exponential-phase bacteria were diluted to approximately 5×10^5 colony-forming units (CFU)/mL and exposed to ORI or COL alone, or in combination in CAMHB containing 0.002% P80. Bacteria were enumerated by serial dilution plating. To prevent drug carryover during serial dilution plating, aliquots of the drug-challenged culture were added to an equal volume of 25 mg/mL activated charcoal suspension. […] All experiments were repeated at least two times and a representative experiment is presented in the plots; data points are an average of duplicate CFU/mL determinations within an experiment.

[3] = system: Acinetobacter baumannii strains; assay: Broth macrodilution MICs under conditions used for synergy time-kill assays; type: cell-based
[4] = system: S. aureus (MSSA, MRSA, VRSA); conditions: within 15 minutes to 2 hours, MRSA and VRSA; cited from earlier work
[5] = system: Acinetobacter baumannii strains; assay: Broth microdilution MIC of colistin in absence and presence of 0.002% polysorbate 80; type: cell-based; conditions: for Colistin MIC −P80: absence of polysorbate 80; for Colistin MIC +P80: presence of 0.002% polysorbate-80
Procedure: as §1, with “([…])” for “(AB) reference strain ATCC 19606 (obtained from ATCC)”
as §2

[6] = strain 2691748 (Non-MDR), agent alone, time-kill conditions
[7] = strain 2691818 (Non-MDR), agent alone, time-kill conditions
[8] = strain 2691999 (MDR), agent alone, time-kill conditions
[9] = strain 2692406 (MDR), agent alone, time-kill conditions
[10] = strain 2692650 (MDR), agent alone, time-kill conditions
[11] = strain 2693922 (MDR), agent alone, time-kill conditions
[12] = strain 2694038 (MDR), agent alone, time-kill conditions
[13] = strain 2694224 (MDR), agent alone, time-kill conditions
[14] = strain 2694227 (MDR), agent alone, time-kill conditions

CN[C@H](CC(C)C)C(=O)N[C@H]1C(=O)N[C@@H](CC(N)=O)C(=O)N[C@H]2C(=O)N[C@H]3C(=O)N[C@H](C(=O)N[C@H](C(=O)O)c4cc(O)cc(O)c4-c4cc3ccc4O)[C@H](O[C@H]3C[C@](C)(N)[C@@H](O)[C@H](C)O3)c3ccc(c(Cl)c3)Oc3cc2cc(c3O[C@@H]2O[C@H](CO)[C@@H](O)[C@H](O)[C@H]2O[C@H]2C[C@](C)(NCc3ccc(-c4ccc(Cl)cc4)cc3)[C@@H](O)[C@H](C)O2)Oc2ccc(cc2Cl)[C@H]1O [ORI, Oritavancin]
MIC [1]: > 8 µg/mL | Broth macrodilution MICs [1, 6]: >8 µg/mL | Broth macrodilution MICs [1, 7]: >8 µg/mL | Broth macrodilution MICs [1, 8]: >8 µg/mL | Broth macrodilution MICs [1, 9]: >8 µg/mL | Broth macrodilution MICs [1, 10]: >8 µg/mL | Broth macrodilution MICs [1, 11]: >8 µg/mL | Broth macrodilution MICs [1, 12]: >8 µg/mL | Broth macrodilution MICs [1, 13]: >8 µg/mL | Broth macrodilution MICs [1, 14]: >8 µg/mL | Concentrations that yielded synergy in time-kill ([2]; strain 2691748 (Non-MDR)): 8 µg/mL | Concentrations that yielded synergy in time-kill ([2]; strain 2691818 (Non-MDR)): 4 µg/mL | Concentrations that yielded synergy in time-kill ([2]; strain 2691999 (MDR)): 4 µg/mL | Concentrations that yielded synergy in time-kill ([2]; strain 2692406 (MDR)): 4 µg/mL | Concentrations that yielded synergy in time-kill ([2]; strain 2692650 (MDR)): 4 µg/mL | Concentrations that yielded synergy in time-kill ([2]; strain 2692721 (MDR)): 4 µg/mL | Concentrations that yielded synergy in time-kill ([2]; strain 2693922 (MDR)): 4 µg/mL | Concentrations that yielded synergy in time-kill ([2]; strain 2694038 (MDR)): 4 µg/mL | Concentrations that yielded synergy in time-kill ([2]; strain 2694224 (MDR)): 4 µg/mL | Concentrations that yielded synergy in time-kill ([2]; strain 2694227 (MDR)): 4 µg/mL | Concentrations that yielded synergy in time-kill ([2]; strain ATCC 19609 (Non-MDR)): 4 µg/mL | MIC ([3]; ATCC19609, read-out: Broth macrodilution MICs): > 8 µg/mL | Reduction of exponentially-growing S. aureus (rapidity of bactericidal activity) [4]: ≥ 3 log

CCC(C)CCCC(=O)N[C@H](CCN)C(=O)N[C@H](C(=O)N[C@@H](CCN)C(=O)N[C@H]1CCNC(=O)[C@H]([C@@H](C)O)NC(=O)[C@H](CCN)NC(=O)[C@H](CCN)NC(=O)[C@H](CC(C)C)NC(=O)[C@@H](CC(C)C)NC(=O)[C@H](CCN)NC1=O)[C@@H](C)O (stereo in doubt) [COL, Colistin]
MIC [1, 6]: > 16 µg/mL | MIC [1, 7]: 0.25 µg/mL | MIC [1, 8]: 1 µg/mL | MIC [1, 9]: 0.25 µg/mL | MIC [1, 10]: 0.25 µg/mL | MIC ([1]; strain 2692721 (MDR), agent alone, time-kill conditions): 0.5 µg/mL | MIC [1, 11]: 0.5 µg/mL | MIC [1, 12]: 0.12 µg/mL | MIC [1, 13]: 0.5 µg/mL | MIC [1, 14]: 0.5 µg/mL | Concentrations that yielded synergy in time-kill ([2]; strain 2691748 (Non-MDR)): 1 µg/mL | Concentrations that yielded synergy in time-kill ([2]; strain 2691818 (Non-MDR)): 0.12 µg/mL | Concentrations that yielded synergy in time-kill ([2]; strain 2691999 (MDR)): 0.12 µg/mL | Concentrations that yielded synergy in time-kill ([2]; strain 2692406 (MDR)): 0.12 µg/mL | Concentrations that yielded synergy in time-kill ([2]; strain 2692650 (MDR)): 0.12 µg/mL | Concentrations that yielded synergy in time-kill ([2]; strain 2692721 (MDR)): 0.12 µg/mL | Concentrations that yielded synergy in time-kill ([2]; strain 2693922 (MDR)): 0.12 µg/mL | Concentrations that yielded synergy in time-kill ([2]; strain 2694038 (MDR)): 0.06 µg/mL | Concentrations that yielded synergy in time-kill ([2]; strain 2694224 (MDR)): 0.12 µg/mL | Concentrations that yielded synergy in time-kill ([2]; strain 2694227 (MDR)): 0.12 µg/mL | Concentrations that yielded synergy in time-kill ([2]; strain ATCC 19609 (Non-MDR)): 0.06 µg/mL | Fold change in MIC (−P80/+P80) ([5]; strain 2691748 (Non-MDR)): 8 | Colistin MIC −P80 ([5]; strain 2691748 (Non-MDR)): 4 µg/mL | Colistin MIC +P80 ([5]; strain 2691748 (Non-MDR)): 0.5 µg/mL | Fold change in MIC (−P80/+P80) ([5]; strain 2691818 (Non-MDR)): 2 | Colistin MIC −P80 ([5]; strain 2691818 (Non-MDR)): 2 µg/mL | Colistin MIC +P80 ([5]; strain 2691818 (Non-MDR)): 1 µg/mL | Fold change in MIC (−P80/+P80) ([5]; strain 2691999 (MDR)): 4 | Colistin MIC −P80 ([5]; strain 2691999 (MDR)): 1 µg/mL | Colistin MIC +P80 ([5]; strain 2691999 (MDR)): 0.25 µg/mL | Fold change in MIC (−P80/+P80) ([5]; strain 2692406 (MDR)): 16 | Colistin MIC −P80 ([5]; strain 2692406 (MDR)): 2 µg/mL | Colistin MIC +P80 ([5]; strain 2692406 (MDR)): 0.125 µg/mL | Fold change in MIC (−P80/+P80) ([5]; strain 2692650 (MDR)): 4 | Colistin MIC −P80 ([5]; strain 2692650 (MDR)): 0.5 µg/mL | Colistin MIC +P80 ([5]; strain 2692650 (MDR)): 0.125 µg/mL | Fold change in MIC (−P80/+P80) ([5]; strain 2692721 (MDR)): 4 | Colistin MIC −P80 ([5]; strain 2692721 (MDR)): 1 µg/mL | Colistin MIC +P80 ([5]; strain 2692721 (MDR)): 0.25 µg/mL | Fold change in MIC (−P80/+P80) ([5]; strain 2693922 (MDR)): 4 | Colistin MIC −P80 ([5]; strain 2693922 (MDR)): 0.5 µg/mL | Colistin MIC +P80 ([5]; strain 2693922 (MDR)): 0.125 µg/mL | Fold change in MIC (−P80/+P80) ([5]; strain 2694038 (MDR)): 4 | Colistin MIC −P80 ([5]; strain 2694038 (MDR)): 1 µg/mL | Colistin MIC +P80 ([5]; strain 2694038 (MDR)): 0.25 µg/mL | Fold change in MIC (−P80/+P80) ([5]; strain 2694224 (MDR)): 4 | Colistin MIC −P80 ([5]; strain 2694224 (MDR)): 1 µg/mL | Colistin MIC +P80 ([5]; strain 2694224 (MDR)): 0.25 µg/mL | Fold change in MIC (−P80/+P80) ([5]; strain 2694227 (MDR)): 8 | Colistin MIC −P80 ([5]; strain 2694227 (MDR)): 1 µg/mL | Colistin MIC +P80 ([5]; strain 2694227 (MDR)): 0.125 µg/mL | Fold change in MIC (−P80/+P80) ([5]; strain ATCC 19609 (Non-MDR)): 4 | Colistin MIC −P80 ([5]; strain ATCC 19609 (Non-MDR)): 1 µg/mL | Colistin MIC +P80 ([5]; strain ATCC 19609 (Non-MDR)): 0.25 µg/mL | MIC ([3]; ATCC19609, strain ATCC 19609 (Non-MDR), agent alone, time-kill conditions, read-out: Broth macrodilution MICs): 0.25 µg/mL
